Patent US6645966B2, “Treatment of malaria with farnesyl protein transferase inhibitors” (Schering Corporation, priority 2001, dated 2003)
Where two headings read alike, the source gives them in different places.

Tests used:
[1] = test system: P. falciparum (strain C10, partially chloroquine resistant strain); test: In Vitro Plasmodium falciparum Growth Inhibition Assay ([3H]-hypoxanthine uptake into infected erythrocytes); format: cell-based; settings: Erythrocyte
Method: The growth activity of P. falciparum was determined by measuring the uptake of the radiolabeled nucleic acid precursor [3H]-hypoxanthine from the media into infected erythrocytes by a method similar to that reported by Jomaa et al (1999). In this method human red blood cells (RBC) were infected with P. falciparum (strain C10, partially chloroquine resistant strain) to 0.4% parasitemia (0.4% of the RBC contain at least 1 parasite). The infected human RBC cells were adjusted to a hematocrit of 2% and 200 μl was plated into 96 well plates. DMSO solutions of inhibitors were added to the plates to make final concentrations of inhibitors from 20 μM to 0.2 μM and a final concentration of DMSO between 0.2 and 1%. The inhibitor-RBC solutions were incubated for 48 hours followed by the addition of [3H]-hypoxanthine to each well and further incubated for 24 hours. The incorporation of [3H]-hypoxanthine into the parasite DNA was measured by acid precipitating the nucleic acid content onto filters, washing the filters and counting the incorporated radioactivity in a scintillation counter.

Compound	melting point	further results
Clc1ccc2c(c1)CCc1cccnc1C2N1CCC[C@H](Cn2ccnc2)C1 (single isomer, unassigned)	71 to 75 °C	–
O=CN(O)CCCP(=O)(O)O [fosmidomycin]	–	EC50 ([1]; P. falciparum strain C10 in infected human RBC, 0.4% parasitemia, 48 hours incubation then [3H]-hypoxanthine for 24 hours, read-out: ED50 (the source's name)): 600 nM
N#Cc1ccc(Cn2cncc2CCNC(=O)[C@H]2CN(Cc3ccncc3)CCN2C(=O)NC2CCCCC2)cc1	80 °C (dec.)	–
CCN(CC)CCCC(C)Nc1ccnc2cc(Cl)ccc12 (stereo not shown) [chloroquine]	–	EC50 ([1]; read-out: ED50): 260 nM
